The values below come from ChEMBL document CHEMBL1138347, “Multi-target-directed drug design strategy: from a dual binding site acetylcholinesterase inhibitor to a trifunctional compound against Alzheimer's disease” (J Med Chem, 2007).

What is called IC50 is the concentration needed to halve the response being measured. Low values mean inhibition by little substance, high ones a need for much substance.

One assay addresses Acetylcholinesterase (Homo sapiens, UniProt P22303).
The target in a further assay is Cholinesterase (Homo sapiens, UniProt P06276).
A short description of assay [1]: Inhibition of human AChE-induced amyloid-beta (1-40) aggregation by thioflavin T fluorescene method.

Cholinesterase, sequence (P06276 whole entry): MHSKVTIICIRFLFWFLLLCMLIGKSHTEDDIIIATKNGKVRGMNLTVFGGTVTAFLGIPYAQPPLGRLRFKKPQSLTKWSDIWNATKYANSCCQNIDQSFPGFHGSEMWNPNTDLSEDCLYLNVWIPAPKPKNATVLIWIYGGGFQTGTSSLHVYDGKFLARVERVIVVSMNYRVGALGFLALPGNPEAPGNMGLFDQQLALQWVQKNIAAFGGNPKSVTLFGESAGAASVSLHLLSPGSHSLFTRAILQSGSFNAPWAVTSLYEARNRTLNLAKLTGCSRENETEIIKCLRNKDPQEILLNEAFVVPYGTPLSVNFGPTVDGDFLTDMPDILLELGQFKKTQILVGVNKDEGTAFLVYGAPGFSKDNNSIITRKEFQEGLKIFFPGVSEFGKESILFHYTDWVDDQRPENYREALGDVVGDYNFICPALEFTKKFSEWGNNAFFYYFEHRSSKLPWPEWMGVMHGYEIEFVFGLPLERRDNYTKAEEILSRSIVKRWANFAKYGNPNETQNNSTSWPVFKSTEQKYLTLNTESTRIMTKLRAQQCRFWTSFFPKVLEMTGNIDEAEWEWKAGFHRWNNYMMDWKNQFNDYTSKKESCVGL
Acetylcholinesterase, sequence (P22303 whole entry): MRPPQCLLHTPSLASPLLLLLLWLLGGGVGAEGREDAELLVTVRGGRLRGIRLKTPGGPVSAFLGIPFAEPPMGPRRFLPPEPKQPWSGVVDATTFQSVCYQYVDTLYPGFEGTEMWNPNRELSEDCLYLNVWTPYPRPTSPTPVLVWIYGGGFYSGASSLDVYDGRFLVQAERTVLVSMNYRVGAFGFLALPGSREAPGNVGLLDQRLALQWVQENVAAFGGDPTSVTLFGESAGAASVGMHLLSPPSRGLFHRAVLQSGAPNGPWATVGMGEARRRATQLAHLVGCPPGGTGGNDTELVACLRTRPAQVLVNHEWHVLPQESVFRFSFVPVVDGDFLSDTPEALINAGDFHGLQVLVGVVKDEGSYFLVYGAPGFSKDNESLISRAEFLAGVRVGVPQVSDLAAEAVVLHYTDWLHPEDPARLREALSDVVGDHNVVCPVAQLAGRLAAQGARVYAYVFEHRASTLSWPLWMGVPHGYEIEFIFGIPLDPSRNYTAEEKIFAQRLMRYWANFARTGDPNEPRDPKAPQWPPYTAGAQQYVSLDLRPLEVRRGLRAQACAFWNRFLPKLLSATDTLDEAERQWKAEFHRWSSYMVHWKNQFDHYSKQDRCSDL
Description for Acetylcholinesterase: Inhibition of human serum recombinant AChE by Ellman's method

Consider `c1ccc2c(NCCOCCOCCNc3c4c(nc5ccccc35)CCCC4)c3c(nc2c1)CCCC3`, for which the IC50 against Acetylcholinesterase is 19.7 nM; against Cholinesterase it was 35.1 nM.
Turning to `O=C(NCCNc1c2c(nc3ccccc13)CCCC2)C(=O)NCCNc1c2c(nc3ccccc13)CCCC2`, the IC50 at Acetylcholinesterase was 6.65 nM; on Cholinesterase it was 5.44 nM.
As to `c1ccc2c(NCCCCCCCNc3c4c(nc5ccccc35)CCCC4)c3c(nc2c1)CCCC3`, the concentration for half-maximal inhibition (IC50) in assay [1] turned out to be 41.7 µM; against Cholinesterase it was 5.66 nM.
At Cholinesterase, `O=C(CCCNc1c2c(nc3ccccc13)CCCC2)CCCNc1c2c(nc3ccccc13)CCCC2` returned an IC50 of 11.3 nM.
